Reference: patent US4064132A, “Aroyl-substituted phenylacetamide derivatives” (Janssen Pharmaceutica N.V., priority 1976, dated 1977)
Where two headings read alike, the source gives them in different places.

Assays:
[1] = system: mycobacterium butyricum induced arthritis; assay: mycobacterium butyricum induced arthritis test in rats; type: in vivo, male Wistar rats; settings: for minimal effective dose: Rattus norvegicus, po, 336 h, 14 consecutive days; for Potency Ratio: arthritis test, compound A vs compound B
Method: According to the mycobacterium butyricum induced arthritis test, male Wistar rats (body weight 235±15g) are injected intradermally in the tail base with 0.05 ml of an oily suspension of mycobacterium butyricum. The paws and the joint diameters of the hind limbs are measured the day of the injection and a fortnight later. Rats with established arthritis, i.e., significant increase in paw and joint diameters are used for drug testing. Groups of three individually caged animals receive the drug under investigation mixed with the powdered food at different concentrations during 14 consecutive days. After this treatment period, the diameters of the hind limbs are measured again and the effect of drug treatment is evaluated by comparing the final swelling degrees of treated animals with that occurring in untreated controls. The lowest effective dose is that dose whereby a significant decrease of the swelling is observed as compared to untreated control animals.

[2] = system: acetic acid induced writhing; assay: HOAc (acetic acid) induced writhing test in rats; type: in vivo, female Wistar rats; settings: for ED50: Rattus norvegicus, po; for Potency Ratio: writhing test, compound A vs compound B
Method: According to the acetic acid induced writhing test, female Wistar rats (body weight 100±5g) are fasted overnight and injected intraperitoneally with 0.5 ml of a 1% acetic acid solution. Rats with at least 10 writhes within the first 10 minutes following the acetic acid injection are selected and treated five minutes later with an oral dose of the compound under investigation or with the vehicle (control). The number of writhes, i.e. the backward extension of the hind limbs, are counted during a 15 minute experimental session 45 to 60 minutes after the oral treatment. A minimum of three rats are used for each dose level tested.

[3] = drug in food, table 3, read-out: Mycobacterium butyricum test effective dose
[4] = table 3, read-out: Writhing test in rats, ED50
[5] = mixed with the powdered food, significant decrease of swelling vs untreated controls, table 2, read-out: Lowest Effective Dose
[6] = all-or-none basis of less than 15 writhes per animal per session, table 1, read-out: Oral ED50 (lowest effective oral dose expressed as ED50)

In the case of `Cc1c(CC(=O)O)cccc1C(=O)c1cccs1` [m-(2-thenoyl) H Me H H OH, 2-[3-(2-thenoyl)-o-tolyl]acetic acid], the minimal effective dose [1, 3] is reported as 1.25 mg/kg and the ED50 [2, 4] is reported as 10 mg/kg.
`CC(C)(C(=O)O)c1ccc(C(=O)c2cccs2)cc1` [p-(2-thenoyl) H H Me Me OH, α-methyl-p-(2-thenoyl)hydratropic acid] was tested, and the minimal effective dose [1, 3] was under 10 mg/kg and the ED50 [2, 4] was 0.31 mg/kg.
`CC(C(=O)OCCCN(C)C)c1ccc(C(=O)c2cccs2)cc1.O=C(O)C(=O)O` (centres unmarked) [p-(2-thenoyl) H H Me H O(CH2)3N(Me)2, 3-(dimethylamino)propylp-(2-thenoyl)hydratropate oxalate] gave a minimal effective dose [1, 3] of 2.5 mg/kg and an ED50 [2, 4] of 0.16 mg/kg.
Molecule `C=CCC(C(=O)O)c1ccc(C(=O)c2cccs2)cc1` (centres unmarked) [p-(2-thenoyl) H H allyl H OH, 2-[p-(2-thenoyl)phenyl]-4-pentenoic acid] has a minimal effective dose [1, 3] of 10 mg/kg and an ED50 [2, 4] of 1.25 mg/kg.
In the case of `CC(C(=O)O)c1ccc(C(=O)c2cccs2)cc1` (stereo not drawn) [A, p-(2-thenoyl)-α-methyl-phenylacetic acid], the “antagonism of mycobacterium butyricum induced arthritis in rats (in words)” value [1] is reported as “powerful antagonist of mycobacterium butyricum induced arthritis in rats”, the minimal effective dose [1, 5] is reported as 0.63 mg/kg and the “Potency Ratio” value ([1]; table 2) is reported as 1. The “times more active than compound B (arthritis)” value ([1]; drug in food, 14 days) was “at least 16 times”, the ED50 [2, 6] was 0.08 mg/kg and the “times more active than compound B (writhing)” value ([2]; oral) was 16 times. For the same molecule, the “Potency Ratio” value ([2]; table 1) was 1.
Work on `CC(C(=O)O)c1ccc(C(=O)c2ccc(Cl)s2)cc1` (centres unmarked) [p-(5-chloro-2-thenoyl) H H Me H OH, p-(5-chloro-2-thenoyl)hydratropic acid] yielded a minimal effective dose [1, 3] of 5 mg/kg and an ED50 [2, 4] of 0.63 mg/kg.
`CCCCCCCCOC(=O)C(C)c1ccc(C(=O)c2cccs2)cc1` (centres unmarked) [p-(2-thenoyl) H H Me H OOct, octyl p-(2-thenoyl)hydratropate] showed an ED50 [2, 4] of 0.63 mg/kg.
In the case of `CC(C(=O)OCCN(C)C)c1ccc(C(=O)c2cccs2)cc1.O=C(O)C(=O)O` (centres unmarked) [p-(2-thenoyl) H H Me H O(CH2)2N(Me)2, 2-(dimethylamino)ethyl p-(2-thenoyl)hydratropate oxalate], the minimal effective dose [1, 3] is reported as 2.5 mg/kg and the ED50 [2, 4] is reported as 0.08 mg/kg.
With `CCC(C(=O)O)c1ccc(C(=O)c2cccs2)cc1` (centres unmarked) [p-(2-thenoyl) H H Et H OH, 2-[p-(2-thenoyl)phenyl]butyric acid] the ED50 [2, 4] was 0.63 mg/kg.
Work on `CCN(CC)CCOC(=O)C(C)c1ccc(C(=O)c2cccs2)cc1.Cl` (centres unmarked) [p-(2-thenoyl) H H Me H O(CH2)2N(Et)2, 2-(diethylamino)ethyl p-(2-thenoyl)hydratropate hydrochloride] yielded a minimal effective dose [1, 3] of 2.5 mg/kg and an ED50 [2, 4] of 0.04 mg/kg.
With `CC(C(=O)NC1=NCCS1)c1ccc(C(=O)c2cccs2)cc1` (centres unmarked) [p-(2-thenoyl) H H Me H drawing 31] the minimal effective dose [1, 3] was 10 mg/kg and the ED50 [2, 4] was 2.5 mg/kg.
For `CC(C(=O)NO)c1ccc(C(=O)c2cccs2)cc1` (centres unmarked) [p-(2-thenoyl) H H Me H NHOH, p-(2-thenoyl)hydratropohydroxamic acid], the ED50 [2, 4] was 1.25 mg/kg.
In the case of `CC(C(=O)O)c1cccc(C(=O)c2cccs2)c1` (centres unmarked) [m-(2-thenoyl) H H Me H OH, m-(2-thenoyl)hydratropic acid], the ED50 [2, 4] is reported as 1.25 mg/kg.
`CC(C(=O)O)c1ccc(C(=O)c2cccs2)cc1` (single isomer, unassigned; (+)) [p-(2-thenoyl) (+) H H Me H OH, (+)-p-(2-thenoyl)hydratropic acid] was tested, and the minimal effective dose [1, 3] was at most 2.5 mg/kg and the “Writhing test in rats; ED50” value ([2]; oral, table 3) was 0.31 mg/kg.
`Cc1cc(C(C)C(=O)O)ccc1C(=O)c1cccs1` (centres unmarked) [p-(2-thenoyl) Me H Me H OH, 3-methyl-4-(2-thenoyl)hydratropic acid] gave a minimal effective dose [1, 3] of 10 mg/kg and an ED50 [2, 4] of 5 mg/kg.
`CC(C(=O)O)c1ccc(C(=O)c2ccc3ccccc3c2)cc1` (centres unmarked) [p-(2-naphtoyl) H H Me H OH, p-(2-naphthoyl)hydratropic acid] was tested, and the minimal effective dose [1, 3] was 10 mg/kg and the ED50 [2, 4] was 1.25 mg/kg.
Molecule `CC(C(=O)O)c1ccc(C(=O)c2cccnc2)cc1.Cl` (centres unmarked) [p-(3-pyridylcarbonyl) H H Me H OH, p-(3-pyridylcarbonyl)hydratropic acid hydrochloride] has a minimal effective dose [1, 3] of 2.5 mg/kg and an ED50 [2, 4] of 2.5 mg/kg.
`CCOC(=O)C(C)c1ccc(C(=O)c2cccs2)cc1` (centres unmarked) [p-(2-thenoyl) H H Me H OEt, ethyl p-(2-thenoyl)hydratropate] showed an ED50 [2, 4] of 0.31 mg/kg.
`Cc1ccc(C(=O)c2ccc(C(C)C(=O)O)cc2)s1` (centres unmarked) [p-(5-Me-2-thenoyl) H H Me H OH, p-(5-methyl-2-thenoyl)hydratropic acid] showed a minimal effective dose [1, 3] of 5 mg/kg and an ED50 [2, 4] of 1.25 mg/kg.
In the case of `CC(C(=O)O)c1ccc(C(=O)c2cccs2)c(Cl)c1` (centres unmarked) [p-(2-thenoyl) Cl H Me H OH, 3-chloro-4-(2-thenoyl)hydratropic acid], the minimal effective dose [1, 3] is reported as 1.25 mg/kg and the ED50 [2, 4] is reported as 1.25 mg/kg.
`CC(C(=O)O)c1ccc(C(=O)c2cccs2)cc1` (single isomer, unassigned; (-)) [p-(2-thenoyl) (-) H H Me H OH, (-)-p-(2-thenoyl)hydratropic acid] was tested, and the “Writhing test in rats; ED50” value ([2]; oral, table 3) was 5.0 mg/kg.
In the case of `CC(C(=O)O)c1ccc(C(=O)c2ccccc2)cc1` (stereo not drawn) [B, p-benzoyl-α-methylphenylacetic acid, reference compound], the minimal effective dose [1, 5] is reported as 10 mg/kg, the “Potency Ratio” value ([1]; table 2) is reported as 1/16 and the ED50 [2, 6] is reported as 1.25 mg/kg. The “Potency Ratio” value ([2]; table 1) was 1/16.
`COc1ccc(NC(=O)C(C)c2ccc(C(=O)c3cccs3)cc2)cc1` (centres unmarked) [p-(2-thenoyl) H H Me H drawing 30] was tested, and the minimal effective dose [1, 3] was under 10 mg/kg and the ED50 [2, 4] was 10 mg/kg.
